According to PubChem BioAssay (NCI):
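Where inhibition never reached the appropriate level, the endpoint shown equals the highest concentration tested. Otherwise, values were interpolated linearly from a five-concentration, 48-hour dose response in 96-well plates. TGI marks complete inhibition of growth.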

Experiments:
Assay in all cases: NCI-60 cell line screen, 48 h
[1] = system: IGROV1 ovarian
[2] = system: NCI/ADR-RES ovarian
[3] = system: MDA-MB-435
[4] = system: MDA-N
[5] = system: UACC-257 melanoma
[6] = system: NCI-H460 lung
[7] = system: OVCAR-5 ovarian
[8] = system: HOP-92 NSCLC
[9] = system: K-562 leukemia
[10] = system: KM12 colon
[11] = system: UACC-62 melanoma
[12] = system: PC-3 prostate
[13] = system: MALME-3M melanoma
[14] = system: SW-620 colon
[15] = system: TK-10 renal
[16] = system: LOX IMVI melanoma
[17] = system: HT29 colon
[18] = system: SK-MEL-2 melanoma
[19] = system: M14 melanoma
[20] = system: MCF7 breast
[21] = system: SK-OV-3 ovarian
[22] = system: HCT-15 colon
[23] = system: SNB-75 CNS
[24] = system: SF-268 CNS
[25] = system: OVCAR-8 ovarian
[26] = system: U251 CNS
[27] = system: HCC-2998 colon
[28] = system: SNB-19 CNS
[29] = system: 786-0 renal
[30] = system: DU-145 prostate
[31] = system: BT-549 breast
[32] = system: NCI-H522 lung
[33] = system: HOP-62 NSCLC
[34] = system: SK-MEL-5 melanoma
[35] = system: OVCAR-3 ovarian
[36] = system: ACHN renal
[37] = system: SF-539 CNS
[38] = system: HL-60(TB) leukemia
[39] = system: SK-MEL-28 melanoma
[40] = system: HCT-116 colon
[41] = system: T-47D breast
[42] = system: EKVX NSCLC
[43] = system: SR leukemia
[44] = system: SN12C renal
[45] = system: MDA-MB-231 breast
[46] = system: A549 NSCLC
[47] = system: MOLT-4 leukemia
[48] = system: HS 578T breast
[49] = system: NCI-H23 lung
[50] = system: COLO 205 colon
[51] = system: A498 renal
[52] = system: OVCAR-4 ovarian
[53] = system: UO-31 renal
[54] = system: RPMI-8226 leukemia
[55] = system: SF-295 CNS

`c1ccc(/N=N\Nc2ccc(-c3nc4ccccc4o3)cc2)nc1` was tested, and the TGI [1] was over 100 µM, the TGI [2] was over 100 µM and the TGI [3] was over 100 µM. For the same compound, the TGI [4] was over 100 µM, the TGI [5] was 83 µM and the TGI [6] was over 100 µM. The TGI [7] was over 100 µM, the TGI [8] was over 100 µM and the TGI [9] was over 100 µM. It also gave a TGI [10] of over 100 µM, a TGI [11] of over 100 µM and a TGI [12] of over 100 µM. It also gave a TGI [13] of over 100 µM, a TGI [14] of 42.1 µM and a TGI [15] of over 100 µM. For the same compound, the TGI [16] was over 100 µM, the TGI [17] was over 100 µM and the TGI [18] was over 100 µM. For the same compound, the TGI [19] was over 100 µM, the TGI [20] was over 100 µM and the TGI [21] was over 100 µM. For the same compound, the TGI [22] was over 100 µM, the TGI [23] was 85.8 µM and the TGI [24] was over 100 µM. For the same compound, the TGI [25] was over 100 µM, the TGI [26] was over 100 µM and the TGI [27] was 55.4 µM. The TGI [28] was over 100 µM, the TGI [29] was over 100 µM and the TGI [30] was over 100 µM. The TGI [31] was over 100 µM, the TGI [32] was over 100 µM and the TGI [33] was over 100 µM. It also gave a TGI [34] of 30.3 µM, a TGI [35] of over 100 µM and a TGI [36] of over 100 µM. For the same compound, the TGI [37] was over 100 µM, the TGI [38] was over 100 µM and the TGI [39] was over 100 µM. It also gave a TGI [40] of over 100 µM, a TGI [41] of 87.1 µM and a TGI [42] of 88.2 µM. The TGI [43] was over 100 µM, the TGI [44] was over 100 µM and the TGI [45] was over 100 µM. It also gave a TGI [46] of over 100 µM, a TGI [47] of 61.1 µM and a TGI [48] of over 100 µM. For the same compound, the TGI [49] was over 100 µM, the TGI [50] was 49.2 µM and the TGI [51] was over 100 µM. The TGI [52] was over 100 µM and the TGI [53] was over 100 µM.

For `c1cc2cc(c1)CN1CCNCCN(CCNCC1)Cc1cccc(c1)CN1CCNCCN(CCNCC1)C2`, the TGI [1] was over 100 µM, the TGI [2] was over 100 µM and the TGI [3] was over 100 µM. For the same compound, the TGI [4] was over 100 µM, the TGI [5] was over 100 µM and the TGI [6] was over 100 µM. For the same compound, the TGI [7] was over 100 µM, the TGI [9] was over 100 µM and the TGI [10] was over 100 µM. It also gave a TGI [11] of over 100 µM, a TGI [12] of over 100 µM and a TGI [13] of over 100 µM. It also gave a TGI [14] of over 100 µM, a TGI [15] of over 100 µM and a TGI [16] of over 100 µM. For the same compound, the TGI [54] was over 100 µM, the TGI [17] was over 100 µM and the TGI [18] was over 100 µM. The TGI [19] was over 100 µM, the TGI [20] was over 100 µM and the TGI [21] was over 100 µM. The TGI [22] was over 100 µM, the TGI [23] was over 100 µM and the TGI [55] was over 100 µM. For the same compound, the TGI [24] was over 100 µM, the TGI [25] was over 100 µM and the TGI [26] was over 100 µM. For the same compound, the TGI [27] was over 100 µM, the TGI [28] was over 100 µM and the TGI [29] was over 100 µM. For the same compound, the TGI [30] was over 100 µM, the TGI [31] was over 100 µM and the TGI [33] was over 100 µM. For the same compound, the TGI [34] was over 100 µM, the TGI [35] was over 100 µM and the TGI [36] was over 100 µM. The TGI [37] was over 100 µM, the TGI [39] was over 100 µM and the TGI [40] was over 100 µM. It also gave a TGI [41] of over 100 µM, a TGI [42] of over 100 µM and a TGI [43] of over 100 µM. The TGI [44] was over 100 µM, the TGI [45] was over 100 µM and the TGI [46] was over 100 µM. For the same compound, the TGI [47] was over 100 µM, the TGI [48] was over 100 µM and the TGI [49] was over 100 µM. The TGI [50] was over 100 µM, the TGI [51] was over 100 µM and the TGI [52] was over 100 µM. For the same compound, the TGI [53] was over 100 µM.
